Here are results for 23 compounds from patent publication US20250163057A1, “DCN-1 MODULATING COMPOUNDS AND METHODS OF USE THEREOF” (Cellarity, Inc., priority 2023, published 2025).

pEC50, pIC50: −log10 of the molar value.

Assay [1] has as its system fetal hemoglobin gene HBG1. The assay can be described thus: HBG1 Nanostring Assay in CD34+ HSPC erythroid differentiation culture. The assay is classed as cell-based, human. The settings on record: for Nanostring Ymax obs (%): relative to a control compound (C1); for pEC50: HBG1 induction, Day10 of erythroid differentiation. The essentials: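 HBG1 counts came from direct nCounter hybridization (67° C, 22 h) of day-10 lysates, normalized to ERCC positive controls and a housekeeping gene, giving EC50 and Ymax versus a reference compound. Compounds in 0.1% DMSO were present from day −2 while cells underwent EPO/SCF/IL-3 erythroid differentiation, with IL-3 dropped at day 7, at 37° C.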

Assay [2] has as its system Cullin-3 (CUL3) neddylation. The assay can be described thus: AlphaLISA assay for Cullin-3 (CUL3) neddylation in TF 1 cells. The settings on record: 3 hours treatment. The assay is classed as cell-based. The essentials:
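Neddylated CUL3 was quantified by AlphaLISA in lysates of TF 1 cells exposed for 3 h to test compound in IMDM without supplements. Percent inhibition set between vehicle and 1 μM DI-1548 positive control; IC50 derived by Hill-equation fitting of dose-response curves.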
On the technique in general: In Alpha technology, singlet oxygen from a donor bead excites a nearby acceptor bead.

Take `CCN1C(=O)[C@@H](NC(=O)c2cccc(C(F)(F)F)c2)[C@@H](c2ccc(F)cc2)c2c(C(=O)N3CCC[C@H]3C#N)nn(-c3ccccc3)c21` (mixture of isomers) [Compound I-34]: in assay [1], the “Nanostring Ymax obs (%)” value was “++ (Nanostring Ymax greater than 50.0 and less than or equal to 100.0)”.

On to `CCN1C(=O)[C@@H](NC(=O)c2cccc(C(F)(F)F)c2)[C@@H](C2CC2)c2c(C(=O)N3CCS(=O)(=O)C[C@H]3C#N)nn(C3CCOCC3)c21` (mixture of isomers) [Compound I-379], for which, in assay [2] (Homo sapiens, TF-1, 3 h), the pIC50 was at least 7.00. Further, the pEC50 in assay [1] (Homo sapiens, 240 h) was at least 7.00. Also, the “Nanostring Ymax obs (%)” value in assay [1] is “+++ (Nanostring Ymax greater than 100.0)”.

For the compound `CCN1C(=O)[C@@H](NC(=O)c2cccc(C(F)(F)F)c2)[C@@H](c2ccc(F)cc2)c2c(C(=O)N3CS(=O)(=O)C[C@H]3C#N)nn(C3CCOCC3)c21` (mixture of isomers) [Compound I-661, N-((4S,5S)-3-(4-cyano-1,1-dioxidothiazolidine-3-carbonyl)-7-ethyl-4-(4-fluorophenyl)-6-oxo-1-(tetrahydro-2H-pyran-4-yl)-4,5,6,7-tetrahydro-1H-pyrazolo[3,4-b]pyridin-5-yl)-3-(trifluoromethyl)benzamide], the pIC50 in assay [2] (Homo sapiens, TF-1, 3 h) was at least 7.00. The compound also showed a pEC50 in assay [1] (Homo sapiens, 240 h) of at least 7.00. In addition, in assay [1], the “Nanostring Ymax obs (%)” value is “++ (Nanostring Ymax greater than 50.0 and less than or equal to 100.0)”.

`CCN1C(=O)[C@@H](NC(=O)c2cccc(C(F)(F)F)c2)[C@@H](c2ccc(F)cc2)c2c(CNC(=O)/C=C/C(=O)OC)nn(-c3ccccc3)c21` (racemic) [Compound I-3]: the pIC50 in assay [2] (Homo sapiens, TF-1, 3 h) was at least 7.00. Moreover, the pEC50 in assay [1] (Homo sapiens, 240 h) was at least 7.00. Moreover, the “Nanostring Ymax obs (%)” value in assay [1] is given as “+++ (Nanostring Ymax greater than 100.0)”.

Turning to `C=C(CN1CCC1)C(=O)NCc1nn(-c2ccccc2)c2c1[C@H](c1ccc(F)cc1)[C@H](NC(=O)c1cccc(C(F)(F)F)c1)C(=O)N2CC` (racemic) [Compound I-49, rac-N-((4R,5R)-3-((2-(azetidin-1-ylmethyl)acrylamido)methyl)-7-ethyl-4-(4-fluorophenyl)-6-oxo-1-phenyl-4,5,6,7-tetrahydro-1H-pyrazolo[3,4-b]pyridin-5-yl)-3-(trifluoromethyl)benzamide], in assay [2] (Homo sapiens, TF-1, 3 h), the negative logarithm of the IC50 (pIC50) was at least 7.00. Moreover, the “Nanostring Ymax obs (%)” value in assay [1] was “++ (Nanostring Ymax greater than 50.0 and less than or equal to 100.0)”.

In turn, `CCN1C(=O)[C@@H](NC(=O)c2cccc(C(F)(F)F)c2)[C@@H](c2ccc(F)cc2)c2c(NC(=O)C3=CCC3)nn(-c3ccccc3)c21` (racemic) [Compound I-152] showed a pIC50 in assay [2] (Homo sapiens, TF-1, 3 h) of 6.00 to 7.00. Besides, in assay [1] (Homo sapiens, 240 h), the pEC50 was 6.00 to 7.00. The “Nanostring Ymax obs (%)” value in assay [1] is recorded as “+++ (Nanostring Ymax greater than 100.0)”.

The compound `CCN1C(=O)[C@@H](NC(=O)c2cccc(C(F)(F)F)c2)[C@@H](c2ccc(F)cc2)c2c([C@@H](C)NC#N)nn(-c3ccccc3)c21` [Compound I-73, N-((4S,5S)-3-((R)-1-cyanamidoethyl)-7-ethyl-4-(4-fluorophenyl)-6-oxo-1-phenyl-4,5,6,7-tetrahydro-1H-pyrazolo[3,4-b]pyridin-5-yl)-3-(trifluoromethyl)benzamide] gave a pIC50 in assay [2] (Homo sapiens, TF-1, 3 h) of at least 7.00. This compound had a pEC50 in assay [1] (Homo sapiens, 240 h) of at least 7.00. Moreover, in assay [1], the “Nanostring Ymax obs (%)” value is “++ (Nanostring Ymax greater than 50.0 and less than or equal to 100.0)”.

`CCN1C(=O)[C@@H](NC(=O)c2cccc(C(F)(F)F)c2)[C@@H](c2ccc(F)cc2)c2c(CN(C)C#N)nn(-c3ccccc3)c21` [Compound I-92] showed a pIC50 in assay [2] (Homo sapiens, TF-1, 3 h) of 6.00 to 7.00. Besides, in assay [1], the pEC50 was 6.00 to 7.00; the “Nanostring Ymax obs (%)” value was “++ (Nanostring Ymax greater than 50.0 and less than or equal to 100.0)”.

As for `CCN1C(=O)[C@@H](NC(=O)c2cccc(C(F)(F)F)c2)[C@@H](c2ccc(F)cc2)c2c(C(=O)NC3(C#N)CC3)nn(-c3ccccc3)c21` [Compound I-112], the pIC50 in assay [2] (Homo sapiens, TF-1, 3 h) is 6.00 to 7.00. In assay [1] (Homo sapiens, 240 h), this compound showed a pEC50 of 6.00 to 7.00. The “Nanostring Ymax obs (%)” value in assay [1] was “+++ (Nanostring Ymax greater than 100.0)”.

`C=C(CN1CCC1)C(=O)NCc1nn(-c2ccccc2)c2c1[C@@H](c1ccc(F)cc1)[C@H](NC(=O)c1cccc(C(F)(F)F)c1)C(=O)N2CC` [Compound I-139] showed a pIC50 in assay [2] (Homo sapiens, TF-1, 3 h) of at least 7.00. Further, the “Nanostring Ymax obs (%)” value in assay [1] is “++ (Nanostring Ymax greater than 50.0 and less than or equal to 100.0)”.

For the compound `CCN1C(=O)[C@@H](NC(=O)c2cccc(C(F)(F)F)c2)[C@@H](c2ccc(F)cc2)c2c(CNC#N)nn(-c3ccccc3)c21` [Compound I-140, N-[(4S, 5S)-3-[(cyanoamino)methyl]-7-ethyl-4-(4-fluorophenyl)-6-oxo-1-phenyl-4,5-dihydropyrazolo[3,4-b]pyridine-5-yl]-3-(trifluoromethyl) benzamide], in assay [2] (Homo sapiens, TF-1, 3 h), the pIC50 is at least 7.00. Besides, the pEC50 in assay [1] (Homo sapiens, 240 h) is 6.00 to 7.00. The “Nanostring Ymax obs (%)” value in assay [1] is “++ (Nanostring Ymax greater than 50.0 and less than or equal to 100.0)”.

In assay [2] (Homo sapiens, TF-1, 3 h), `CCN1C(=O)[C@@H](NC(=O)c2cccc(C(F)(F)F)c2)[C@@H](C2CC2)c2c(C(=O)N3[C@H](C#N)C[C@H]4C[C@H]43)nn(C3CCOCC3)c21` [Compound I-256, N-((4S,5S)-3-((1R,3S,5R)-3-cyano-2-azabicyclo[3.1.0]hexane-2-carbonyl)-4-cyclopropyl-7-ethyl-6-oxo-1-(tetrahydro-2H-pyran-4-yl)-4,5,6,7-tetrahydro-1H-pyrazolo[3,4-b]pyridin-5-yl)-3-(trifluoromethyl)benzamide] gave a pIC50 of at least 7.00. Besides, the pEC50 in assay [1] (Homo sapiens, 240 h) is at least 7.00. Also, the “Nanostring Ymax obs (%)” value in assay [1] was “+++ (Nanostring Ymax greater than 100.0)”.

On to `CCN1C(=O)[C@@H](NC(=O)c2cccc(C(F)(F)F)c2)[C@@H](c2ccc(F)cc2)c2c(C(=O)N3[C@H](C#N)C[C@H]4C[C@H]43)nn(-c3ccccc3)c21` [Compound I-277], for which, in assay [2] (Homo sapiens, TF-1, 3 h), the pIC50 was at least 7.00. The pEC50 in assay [1] (Homo sapiens, 240 h) was at least 7.00. Besides, in assay [1], the “Nanostring Ymax obs (%)” value was “+++ (Nanostring Ymax greater than 100.0)”.

The compound `CCN1C(=O)[C@@H](NC(=O)c2cccc(C(F)(F)F)c2)[C@@H](c2ccc(F)cc2)c2c(C(=O)N3CCC[C@H]3C#N)nn(-c3ccccc3)c21` [Compound I-278] gave a pIC50 in assay [2] (Homo sapiens, TF-1, 3 h) of at least 7.00. Also, in assay [1] (Homo sapiens, 240 h), the pEC50 was at least 7.00. In addition, in assay [1], the “Nanostring Ymax obs (%)” value is given as “+++ (Nanostring Ymax greater than 100.0)”.

Compound `CCN1C(=O)[C@@H](NC(=O)c2cccc(C(F)(F)F)c2)[C@@H](c2ccc(F)cc2)c2c(C(=O)N3CCNCC3C#N)nn(C3CCOCC3)c21` (some centres unmarked) [Compound I-334] showed a pIC50 in assay [2] (Homo sapiens, TF-1, 3 h) of at least 7.00. In addition, the pEC50 in assay [1] (Homo sapiens, 240 h) is at least 7.00. The “Nanostring Ymax obs (%)” value in assay [1] is “+++ (Nanostring Ymax greater than 100.0)”.

Compound `CCN1C(=O)[C@@H](NC(=O)c2cccc(C(F)(F)F)c2)[C@@H](c2ccc(F)cc2)c2c(C(=O)N3CCC[C@H]3C#N)nn(C3CCOCC3)c21` [Compound I-350] showed a pIC50 in assay [2] of at least 7.00. Besides, in assay [1], the pEC50 is at least 7.00 and the “Nanostring Ymax obs (%)” value was “+++ (Nanostring Ymax greater than 100.0)”.

In the case of `CCN1C(=O)[C@@H](NC(=O)c2cccc(C(F)(F)F)c2)[C@@H](c2ccc(F)cc2)c2c(C(=O)N3CCNC[C@H]3C#N)nn(C3CCOCC3)c21` [Compound I-363, N-((4S,5S)-3-((S)-2-cyanopiperazine-1-carbonyl)-7-ethyl-4-(4-fluorophenyl)-6-oxo-1-(tetrahydro-2H-pyran-4-yl)-4,5,6,7-tetrahydro-1H-pyrazolo[3,4-b]pyridin-5-yl)-3-(trifluoromethyl)benzamide], the pIC50 in assay [2] (Homo sapiens, TF-1, 3 h) was at least 7.00. In assay [1] (Homo sapiens, 240 h), this compound gave a pEC50 of at least 7.00. In addition, the “Nanostring Ymax obs (%)” value in assay [1] was “+++ (Nanostring Ymax greater than 100.0)”.

`CCN1C(=O)[C@@H](NC(=O)c2cccc(C(F)(F)F)c2)[C@@H](c2ccc(F)cc2)c2c(C(=O)N(C)[C@@H](C#N)CCN(C)C)nn(C3CCOCC3)c21` [Compound I-369] showed a pIC50 in assay [2] (Homo sapiens, TF-1, 3 h) of at least 7.00. The compound also gave a pEC50 in assay [1] (Homo sapiens, 240 h) of at least 7.00. The “Nanostring Ymax obs (%)” value in assay [1] is given as “+++ (Nanostring Ymax greater than 100.0)”.

In assay [2] (Homo sapiens, TF-1, 3 h), `CCN1C(=O)[C@@H](NC(=O)c2cccc(C(F)(F)F)c2)[C@@H](c2ccc(F)cc2)c2c(C(=O)N(C)[C@H](C#N)CCN(C)C)nn(C3CCOCC3)c21` [Compound I-370] had a pIC50 of at least 7.00. Further, the pEC50 in assay [1] (Homo sapiens, 240 h) is at least 7.00. Besides, the “Nanostring Ymax obs (%)” value in assay [1] is given as “+++ (Nanostring Ymax greater than 100.0)”.

Consider `CCN1C(=O)[C@@H](NC(=O)c2cccc(C(F)(F)F)c2)[C@@H](C2CC2)c2c(C(=O)N3C[C@H](F)C[C@H]3C#N)nn(C3CCOCC3)c21` [Compound I-372], for which the pIC50 in assay [2] (Homo sapiens, TF-1, 3 h) is at least 7.00. Besides, the pEC50 in assay [1] (Homo sapiens, 240 h) is 6.00 to 7.00. Also, the “Nanostring Ymax obs (%)” value in assay [1] is “++ (Nanostring Ymax greater than 50.0 and less than or equal to 100.0)”.

`CCN1C(=O)[C@@H](NC(=O)c2cccc(C(F)(F)F)c2)[C@@H](C2CC2)c2c(C(=O)N3C[C@H](OC)C[C@H]3C#N)nn(C3CCOCC3)c21` [Compound I-377] had a pIC50 in assay [2] (Homo sapiens, TF-1, 3 h) of at least 7.00. In assay [1] (Homo sapiens, 240 h), the pEC50 was at least 7.00. Moreover, the “Nanostring Ymax obs (%)” value in assay [1] was “+++ (Nanostring Ymax greater than 100.0)”.

Take `CCN1C(=O)[C@@H](NC(=O)c2cccc(C(F)(F)F)c2)[C@@H](C2CC2)c2c(C(=O)N3CCNC[C@H]3C#N)nn(-c3ccccc3)c21` [Compound I-383]: the pIC50 in assay [2] (Homo sapiens, TF-1, 3 h) was at least 7.00. In addition, the pEC50 in assay [1] (Homo sapiens, 240 h) was at least 7.00. In addition, the “Nanostring Ymax obs (%)” value in assay [1] is “++ (Nanostring Ymax greater than 50.0 and less than or equal to 100.0)”.

`CCN1C(=O)[C@@H](NC(=O)c2cccc(C(F)(F)F)c2)[C@@H](C)c2c(C(=O)N3[C@H](C#N)C[C@H]4C[C@H]43)nn(C3CCOCC3)c21` [Compound I-387]: the pIC50 in assay [2] was at least 7.00. In addition, in assay [1], the pEC50 is at least 7.00 and the “Nanostring Ymax obs (%)” value was “+++ (Nanostring Ymax greater than 100.0)”.

Usually pIC50 stands for the IC50 on a negative log10 scale, so that one unit is a factor of ten. The pEC50 is the negative decadic logarithm of the EC50, by convention in mol/L. Read a high pEC50 as a small EC50.
